The structures appear in SMILES notation.

One may read the EC50 as the midpoint of the concentration-response curve.

The assay concerns the target T1, human APJ receptor (Homo sapiens, UniProt P35414).
T1 construct: expressed in transfected cells; host or cells: HEK293
T1 sequence (P35414 1-380): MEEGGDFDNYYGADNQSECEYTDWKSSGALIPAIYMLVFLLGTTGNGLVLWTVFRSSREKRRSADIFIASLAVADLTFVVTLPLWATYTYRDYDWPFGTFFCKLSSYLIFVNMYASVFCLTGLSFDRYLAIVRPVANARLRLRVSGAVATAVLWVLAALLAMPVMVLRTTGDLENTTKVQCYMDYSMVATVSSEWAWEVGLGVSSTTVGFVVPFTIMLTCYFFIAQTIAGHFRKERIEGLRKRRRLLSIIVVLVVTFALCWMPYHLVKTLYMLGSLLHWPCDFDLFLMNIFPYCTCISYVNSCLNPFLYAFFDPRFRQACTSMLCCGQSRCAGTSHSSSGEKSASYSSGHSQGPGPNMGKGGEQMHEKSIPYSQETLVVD
Nature of the assay: Intracellular cAMP Accumulation Assay (APJ hcAMP, HTRF). Format: cell-based. The settings on record: human APJ, intracellular cAMP accumulation; read-out: hAPJ cAMP EC50 Potency range. An outline of the steps: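 Stably transfected HEK293 cells (5,000/well) incubated 30 min at room temperature with serially diluted compound, […] and 2 μM forskolin. cAMP measured by HTRF after 60 min with detection reagents, quantified against a cAMP standard curve; EC50 from variable-slope sigmoidal fit of inhibition of forskolin-stimulated cAMP.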

As to `COc1cccc(OC)c1-n1c(CCC2CC2)nc(=O)c(C(=O)N2CCC(c3ncccc3F)C2)c1O` (single isomer, unassigned) [Example 178, 2-(2-cyclopropylethyl)-1-(2,6-dimethoxyphenyl)-5-[3-(3-fluoropyridin-2-yl)pyrrolidine-1-carbonyl]-6-hydroxy-1,4-dihydropyrimidin-4-one], the EC50 is 0.01 to 10 nM.

Regarding `COc1cccc(OC)c1-n1c(CCC2CC2)nc(=O)c(C(=O)N2CCC(c3ncccc3F)C2)c1O` (single isomer, unassigned) [Example 179, 2-(2-cyclopropylethyl)-1-(2,6-dimethoxyphenyl)-5-[3-(3-fluoropyridin-2-yl)pyrrolidine-1-carbonyl]-6-hydroxy-1,4-dihydropyrimidin-4-one], the EC50 lay within 0.01 to 10 nM.

As to `COc1cccc(OC)c1-n1c(CCC2CC2)nc(=O)c(C(=O)N2CCC(c3ncc(Cl)cc3F)C2)c1O` (single isomer, unassigned) [Example 180, 5-[3-(5-chloro-3-fluoropyridin-2-yl)pyrrolidine-1-carbonyl]-2-(2-cyclopropylethyl)-1-(2,6-dimethoxyphenyl)-6-hydroxy-1,4-dihydropyrimidin-4-one], the EC50 fell in the range of 0.01 to 10 nM.

Take `CC[C@@H](c1cc(F)cc(F)c1)n1c(-c2ccn(CC)n2)nc(=O)c(C(=O)N2CCC(c3ncccc3F)C2)c1O` (single isomer, unassigned) [Example 181]: the EC50 fell in the range of 0.01 to 10 nM.

In the case of `CC[C@@H](c1cc(F)cc(F)c1)n1c(-c2cnn(C)c2)nc(=O)c(C(=O)N2CCC(c3ncc(F)cc3F)C2)c1O` (single isomer, unassigned) [Example 182], the EC50 lay in the range of 0.01 to 10 nM.

For the compound `CC[C@@H](c1cc(F)cc(F)c1)n1c(-c2cnn(C)c2)nc(=O)c(C(=O)N2CCC(c3ccc(Cl)cn3)C2)c1O` (single isomer, unassigned) [Example 183], the EC50 is 0.01 to 10 nM.

On to `CC[C@@H](c1cc(F)cc(F)c1)n1c(-c2ccn(C)n2)nc(=O)c(C(=O)N2CCC(c3ncc(F)cc3F)C2)c1O` (single isomer, unassigned) [Example 184], for which the EC50 was 0.01 to 10 nM.

As to `CC[C@@H](c1cc(F)cc(F)c1)n1c(-c2ccn(C)n2)nc(=O)c(C(=O)N2CCC(c3ccc(F)cn3)C2)c1O` (single isomer, unassigned) [Example 185], the concentration for a half-maximal effect (EC50) was 0.01 to 10 nM.

As for `CC[C@@H](c1cc(F)cc(F)c1)n1c(-c2ccn(CC)n2)nc(=O)c(C(=O)N2CCC(c3ncccc3F)C2)c1O` (single isomer, unassigned) [Example 186], the EC50 lay in the range of 0.01 to 10 nM.

For the compound `CC[C@@H](c1cc(F)cc(F)c1)n1c(-c2cnn(C)c2)nc(=O)c(C(=O)N2CCC(c3ccc(Cl)cn3)C2)c1O` (single isomer, unassigned) [Example 187], the EC50 was 0.01 to 10 nM.

As to `CC[C@@H](c1cc(F)cc(F)c1)n1c(-c2cnn(C)c2)nc(=O)c(C(=O)N2CCC(c3ncc(F)cc3F)C2)c1O` (single isomer, unassigned) [Example 188], the EC50 is 0.01 to 10 nM.

Take `CC[C@@H](c1cc(F)cc(F)c1)n1c(-c2ccn(C)n2)nc(=O)c(C(=O)N2CCC(c3ncccc3F)C2)c1O` (single isomer, unassigned) [Example 189]: the EC50 lay within 0.01 to 10 nM.

Turning to `CC[C@@H](c1cc(F)cc(F)c1)n1c(-c2ccn(C)n2)nc(=O)c(C(=O)N2CCC(c3ccc(Cl)cn3)C2)c1O` (single isomer, unassigned) [Example 190], the concentration for a half-maximal effect (EC50) lay within 0.01 to 10 nM.

Turning to `CC[C@@H](c1cc(F)cc(F)c1)n1c(-c2cnn(C)c2)nc(=O)c(C(=O)N2CCC(c3ccc(F)cn3)C2)c1O` (single isomer, unassigned) [Example 191], the EC50 lay within 0.01 to 10 nM.

Take `CC[C@@H](c1cc(F)cc(F)c1)n1c(-c2ccn(CC)n2)nc(=O)c(C(=O)N2CCC(c3ncc(F)cc3F)C2)c1O` (single isomer, unassigned) [Example 192]: the concentration giving a half-maximal response (EC50) was 0.01 to 10 nM.

Regarding `CC[C@@H](c1cc(F)cc(F)c1)n1c(-c2ccn(C)n2)nc(=O)c(C(=O)N2CCC(c3ccccc3F)C2)c1O` (single isomer, unassigned) [Example 193], the EC50 is 0.01 to 10 nM.

On to `CC[C@@H](c1cc(F)cc(F)c1)n1c(-c2ccn(C)n2)nc(=O)c(C(=O)N2CCC(c3ccc(F)cc3)C2)c1O` (single isomer, unassigned) [Example 194], for which the EC50 is 0.01 to 10 nM.

Turning to `CC[C@@H](c1cc(F)cc(F)c1)n1c(-c2ccn(C)n2)nc(=O)c(C(=O)N2CCC(c3ccccc3OC)C2)c1O` (single isomer, unassigned) [Example 195], the EC50 fell in the range of 0.01 to 10 nM.

On to `CC[C@@H](c1cc(F)cc(F)c1)n1c(-c2cnn(C)c2)nc(=O)c(C(=O)N2CCC(c3ccccc3F)C2)c1O` (single isomer, unassigned) [Example 196], for which the EC50 lay within 0.01 to 10 nM.

Regarding `CC[C@@H](c1cc(F)cc(F)c1)n1c(-c2cnn(C)c2)nc(=O)c(C(=O)N2CCC(c3ccc(F)cc3)C2)c1O` (single isomer, unassigned) [Example 197], the EC50 fell in the range of 0.01 to 10 nM.

`CC[C@@H](c1cc(F)cc(F)c1)n1c(-c2cnn(C)c2)nc(=O)c(C(=O)N2CCC(c3ccccc3OC)C2)c1O` (single isomer, unassigned) [Example 198]: the EC50 is 0.01 to 10 nM.

On to `CC[C@@H](c1cc(F)cc(F)c1)n1c(-c2ccn(C)n2)nc(=O)c(C(=O)N2CCC(c3ccc(F)cn3)C2)c1O` (single isomer, unassigned) [Example 199], for which the concentration giving a half-maximal response (EC50) lay within 0.01 to 10 nM.

`CC[C@@H](c1cc(F)cc(F)c1)n1c(-c2ccn(C)n2)nc(=O)c(C(=O)N2CCC(c3cc(F)ccn3)C2)c1O` (single isomer, unassigned) [Example 200]: the EC50 lay within 0.01 to 10 nM.

`CC[C@@H](c1cc(F)cc(F)c1)n1c(-c2ccn(C)n2)nc(=O)c(C(=O)N2CCC(c3ncccc3F)C2)c1O` (single isomer, unassigned) [Example 201]: the EC50 was 0.01 to 10 nM.

For `CC[C@@H](c1cc(F)cc(F)c1)n1c(-c2ccn(CC)n2)nc(=O)c(C(=O)N2CCC(c3cc(F)ccn3)C2)c1O` (single isomer, unassigned) [Example 202], the EC50 lay in the range of 0.01 to 10 nM.

For `CC[C@@H](c1cc(F)cc(F)c1)n1c(-c2cnn(C)c2)nc(=O)c(C(=O)N2CCC(c3cc(F)ccn3)C2)c1O` (single isomer, unassigned) [Example 203], the EC50 was 0.01 to 10 nM.

Turning to `CC[C@@H](c1cc(F)cc(F)c1)n1c(-c2nc(C)cs2)nc(=O)c(C(=O)N2CCC(c3ncccc3F)C2)c1O` (single isomer, unassigned) [Example 204], the concentration for a half-maximal effect (EC50) lay within 0.01 to 10 nM.

As to `CC[C@@H](c1cc(F)cc(F)c1)n1c(-c2nc(C)cs2)nc(=O)c(C(=O)N2CCC(c3cc(F)ccn3)C2)c1O` (single isomer, unassigned) [Example 205], the EC50 lay in the range of 0.01 to 10 nM.

`CC[C@@H](c1cc(F)cc(F)c1)n1c(-c2nc(C)cs2)nc(=O)c(C(=O)N2CCC(c3ccc(F)cn3)C2)c1O` (single isomer, unassigned) [Example 206]: the EC50 lay within 0.01 to 10 nM.

As for `CC[C@@H](c1cc(F)cc(F)c1)n1c(-c2nc(C)cs2)nc(=O)c(C(=O)N2CCC(c3ccccc3OC)C2)c1O` (single isomer, unassigned) [Example 207], the EC50 lay within 0.01 to 10 nM.

For the compound `CC[C@@H](c1cc(F)cc(F)c1)n1c(-c2nc(C)cs2)nc(=O)c(C(=O)N2CCC(c3ccccc3F)C2)c1O` (single isomer, unassigned) [Example 208], the EC50 was 0.01 to 10 nM.

Values taken from US10590113B2, “6-hydroxy-4-oxo-1,4-dihydropyrimidine-5-carboxamides as APJ agonists” (priority 2016, dated 2020).
